Where “and” joins values, the source holds several entries; their conditions need not be identical. Equal entries are not always repeated. Square brackets hold non-standard residues; d marks the D form. Peptide text beside a SMILES is read from it. * marks the point of attachment. pGlu = O=C1CC[C@@H](C(=O)O)N1; Octanoyl = CCCCCCCC(=O)*
System: inflammatory cytokines in BALF
Test: LPS-induced acute lung injury / ARDS mouse model: BALF cytokine concentrations (multiplex ELISA)
Type: in vivo, BALB/c mice
Settings: BALF
Description: In order to test the efficacy of ZEP3 sodium on lung inflammation, the lipopolysaccharide (LPS)-induced acute lung injury model was used. In particular, LPS was administered intratracheally at doses of 10 or 40 mg/kg body weight (BW) corresponding to 0.2 or 0.8 mg/mouse, respectively.
ZEP3 sodium was administered by inhalation (INH) at doses of 25 or 250 mg/kg BW (0.5 or 5 mg/mouse, respectively), or intratracheally (IT) at doses of 5 or 20 mg/kg BW (0.1 or 0.4 mg/mouse, respectively) 6 hours after LPS administration and its effect was measured 72 hours following administration in the branchial alveolar fluid (BALF) using FACS instrumentation.
To detect cytokine release in lungs fluid, cytokine concentrations were assessed in BALF samples using high sensitivity multiplex ELISA assays for: IFN-γ, IL-1α, IL-5, IL-6, IL-10, IL-12 (p70), IL-17A, KC, MCP-1, TNF-α, IP-10, RANTES, G-CSF, MIP-1α and RANTES. ZEP3Na administered intratracheally at 0.1 and 0.4 mg per mouse after instillation of 0.2 mg LPS inhibited the concentration of following interleukins: IL-1α, IL-6, IL-10, IL-12, IL-17, KC, MCP-1, TNF-α and G-CSF.

[1] = Group 2: ZEP3Na 0.1 mg IT, no LPS, group mean
[2] = Group 2: ZEP3Na 0.1 mg IT, no LPS, individual mice
[3] = Group 3: ZEP3Na 0.4 mg IT, no LPS, group mean
[4] = Group 3: ZEP3Na 0.4 mg IT, no LPS, individual mice
[5] = Group 4: LPS 0.8 mg + ZEP3Na 0.1 mg IT, group mean
[6] = Group 4: LPS 0.8 mg + ZEP3Na 0.1 mg IT, individual mice
[7] = Group 5: LPS 0.8 mg + ZEP3Na 0.4 mg IT, group mean
[8] = Group 5: LPS 0.8 mg + ZEP3Na 0.4 mg IT, individual mice
[9] = Group 8: LPS 0.2 mg + ZEP3Na 0.1 mg IT, group mean
[10] = Group 8: LPS 0.2 mg + ZEP3Na 0.1 mg IT, individual mice
[11] = Group 9: LPS 0.2 mg + ZEP3Na 0.4 mg IT, group mean

In the case of `CCCCCCCC(=O)NCCCC[C@H](NC(=O)[C@H](Cc1c[nH]c2ccccc12)NC(=O)[C@H](CC(N)=O)NC(=O)[C@@H]1CCC(=O)N1)C(=O)O` [ZEP3Na, pGlu-Asn-Trp-Lys(Octanoyl)-ONa] ([pGlu]NWK(Octanoyl)-OH), the “production of IL-12 and TNF-α” value (0.8 mg LPS treated mice, 0.1 and 0.4 mg) is reported as “significantly inhibited”, the “G-CSF” value [1] is reported as 2.60 pg/mL and the “IL-12 (p70)” value [1] is reported as 7.31 pg/mL. For the same molecule, the “IL-17A” value [1] was 0.35 pg/mL, the “KC” value [1] was 59.28 pg/mL and the “MCP-1” value [1] was 0.00 pg/mL. The “G-CSF” value [2] was 2.37 pg/ml (2×) and 1.99 pg/ml (2×) and 5.06 pg/ml and 2.76 pg/ml (2×) and 3.53 pg/ml and 3.15 pg/ml, the “G-CSF (pg/ml)” value [2] was “undetected” and the “IL-12 (p70)” value [2] was 9.22 pg/ml (2×) and 9.10 pg/ml and 8.79 pg/ml (2×) and 7.39 pg/ml and 5.38 pg/ml and 4.32 pg/ml and 10.92 pg/ml. The “IL-12 (p70) (pg/ml)” value [2] was “undetected”, the “IL-17A” value [2] was 0.63 pg/mL and 2.12 pg/mL and 0.73 pg/mL and the “IL-17A (pg/ml)” value [2] was “undetected”. For the same molecule, the “KC” value [2] was 46.08 pg/mL and 58.58 pg/mL and 58.91 pg/mL and 89.58 pg/mL and 95.87 pg/mL and 47.76 pg/mL and 43.47 pg/mL and 64.27 pg/mL and 42.44 pg/mL and 45.89 pg/mL, the “MCP-1 (pg/ml)” value [2] was “undetected” and the “G-CSF” value [3] was 3.26 pg/mL. For the same molecule, the “IL-12 (p70)” value [3] was 7.54 pg/mL, the “IL-17A” value [3] was 1.26 pg/mL and the “KC” value [3] was 70.95 pg/mL. The “MCP-1” value [3] was 4.89 pg/mL, the “G-CSF” value [4] was 7.65 pg/ml and 3.47 pg/ml (2×) and 2.20 pg/ml (2×) and 6.40 pg/ml and 3.89 pg/ml and the “G-CSF (pg/ml)” value [4] was “undetected”. For the same molecule, the “IL-12 (p70)” value [4] was 8.49 pg/ml (2×) and 7.27 pg/ml and 7.92 pg/ml and 5.27 pg/ml and 9.45 pg/ml and 7.21 pg/ml and 5.22 pg/ml and 8.54 pg/ml, the “IL-17A” value [4] was 2.02 pg/ml and 1.13 pg/ml and 1.36 pg/ml and 1.47 pg/ml and 1.20 pg/ml (2×) and 1.06 pg/ml and 0.73 pg/ml and 1.14 pg/ml and the “KC” value [4] was 56.01 pg/mL and 58.30 pg/mL and 63.33 pg/mL and 62.30 pg/mL and 71.12 pg/mL and 68.10 pg/mL and 52.39 pg/mL and 46.36 pg/mL and 160.65 pg/mL. The “MCP-1” value [4] was 11.53 pg/ml and 11.29 pg/ml (2×) and 9.93 pg/ml, the “MCP-1 (pg/ml)” value [4] was “undetected” and the “G-CSF” value [5] was 138.16 pg/mL. The “IL-12 (p70)” value [5] was 124.09 pg/mL, the “IL-17A” value [5] was 837.99 pg/mL and the “KC” value [5] was 466.06 pg/mL. The “MCP-1” value [5] was 70.18 pg/mL, the “G-CSF” value [6] was 250.42 pg/mL and 141.30 pg/mL and 164.43 pg/mL and 89.05 pg/mL and 416.35 pg/mL and 50.11 pg/mL and 131.80 pg/mL and the “G-CSF (pg/ml)” value [6] was “undetected”. The “IL-12 (p70)” value [6] was 6.33 pg/mL and 5.38 pg/mL and 235.43 pg/mL and 103.27 pg/mL and 192.86 pg/mL and 41.94 pg/mL and 414.83 pg/mL and 27.99 pg/mL and 88.80 pg/mL, the “IL-17A” value [6] was 1287.47 pg/mL and 55.37 pg/mL and 719.90 pg/mL and 51.28 pg/mL and 5285.06 pg/mL and 77.04 pg/mL and 65.83 pg/mL and the “IL-17A (pg/ml)” value [6] was “undetected”. The “KC” value [6] was 39.18 pg/mL and 29.08 pg/mL and 847.35 pg/mL and 522.41 pg/mL and 798.01 pg/mL and 253.77 pg/mL and 831.88 pg/mL and 234.34 pg/mL and 638.49 pg/mL, the “MCP-1” value [6] was 70.21 pg/mL and 76.09 pg/mL and 93.90 pg/mL and 58.01 pg/mL and 114.01 pg/mL and 53.91 pg/mL and 165.51 pg/mL and the “MCP-1 (pg/ml)” value [6] was “undetected”. The “G-CSF” value [7] was 190.32 pg/mL, the “IL-12 (p70)” value [7] was 102.59 pg/mL and the “IL-17A” value [7] was 204.85 pg/mL. The “KC” value [7] was 773.23 pg/mL, the “MCP-1” value [7] was 190.69 pg/mL and the “G-CSF” value [8] was 491.06 pg/mL and 209.62 pg/mL and 268.52 pg/mL and 300.90 pg/mL and 7.65 pg/mL and 3.47 pg/mL and 124.37 pg/mL and 116.99 pg/mL. The “IL-12 (p70)” value [8] was 7.58 pg/mL and 215.64 pg/mL and 368.44 pg/mL and 12.63 pg/mL and 7.60 pg/mL and 194.02 pg/mL and 14.83 pg/mL, the “IL-12 (p70) (pg/ml)” value [8] was “undetected” and the “IL-17A” value [8] was 7.23 pg/mL and 265.69 pg/mL and 1207.05 pg/mL and 13.05 pg/mL and 2.04 pg/mL and 0.52 pg/mL and 136.95 pg/mL and 6.24 pg/mL. For the same molecule, the “KC” value [8] was 1115.74 pg/mL and 1099.42 pg/mL and 1195.30 pg/mL and 488.61 pg/mL and 54.20 pg/mL and 57.06 pg/mL and 981.92 pg/mL and 1193.59 pg/mL, the “MCP-1” value [8] was 810.24 pg/mL and 166.84 pg/mL and 79.29 pg/mL and 307.60 pg/mL and 15.45 pg/mL and 83.52 pg/mL and 62.54 pg/mL and the “MCP-1 (pg/ml)” value [8] was “undetected”. For the same molecule, the “G-CSF” value [9] was 187.95 pg/mL, the “IL-12 (p70)” value [9] was 264.97 pg/mL and the “IL-17A” value [9] was 724.27 pg/mL. For the same molecule, the “KC” value [9] was 1023.71 pg/mL, the “MCP-1” value [9] was 133.24 pg/mL and the “G-CSF” value [10] was 175.22 pg/mL and 144.90 pg/mL and 109.99 pg/mL and 383.77 pg/mL and 239.49 pg/mL and 199.64 pg/mL and 249.05 pg/mL and 93.60 pg/mL and 177.33 pg/mL and 106.48 pg/mL. The “IL-12 (p70)” value [10] was 247.16 pg/mL and 386.37 pg/mL and 66.34 pg/mL and 199.27 pg/mL and 322.18 pg/mL and 422.04 pg/mL and 317.94 pg/mL and 97.45 pg/mL and 202.28 pg/mL and 388.69 pg/mL, the “IL-17A” value [10] was 553.70 pg/mL and 1615.14 pg/mL and 285.28 pg/mL and 1776.16 pg/mL and 862.84 pg/mL and 989.92 pg/mL and 458.49 pg/mL and 111.01 pg/mL and 281.41 pg/mL and 308.73 pg/mL and the “KC” value [10] was 782.52 pg/mL and 1528.47 pg/mL and 503.00 pg/mL and 672.71 pg/mL and 1548.79 pg/mL and 1057.28 pg/mL and 1346.32 pg/mL and 808.21 pg/mL and 1086.03 pg/mL and 903.77 pg/mL. The “MCP-1” value [10] was 107.46 pg/mL and 158.19 pg/mL and 142.05 pg/mL and 85.01 pg/mL and 91.65 pg/mL and 135.00 pg/mL and 216.90 pg/mL and 114.81 pg/mL and 109.95 pg/mL and 171.38 pg/mL, the “G-CSF” value [11] was 172.12 pg/mL and the “IL-12 (p70)” value [11] was 161.01 pg/mL. For the same molecule, the “IL-17A” value [11] was 584.07 pg/mL.
